Data published in patent publication US20220056123A1, “USE OF IL-1BETA BINDING ANTIBODIES” (NOVARTIS AG, priority 2018, published 2022).

How the values were obtained:
LL2 = assay: Anti-IL-1β in combination with docetaxel in aggressive lung model (LL2); assay type: in vivo, mouse
Protocol: Preclinical Data on the Efficacy of Canakinumab in Combination with Docetaxel in the Treatment of Cancer.
• I. Tumor models: The role of IL-1β in tumor immunity and efficacy of IL-1β blocking antibodies were tested in the following preclinical models: • Xenograft tumors in humanized mouse models: NSCLC (H358), TNBC (MDA-MB231) and CRC (SW480) • Syngeneic tumor models: TNBC (4T1) and lung (LL-2) cancer • II. […] Combination treatments include chemotherapeutic agent, docetaxel (6.25 mg/Kg QW IV), PD-1 pathway inhibitors (anti-human PD-1, pembrolizumab 10 mg/Kg Q5D IP or anti-mouse PD-1, clone 1D2 10 mg/Kg QW IP) and anti-mouse VEGF blocking antibody (clone 4G3, 5 mg/Kg Q5D) were used in combination with anti-IL-1β antibody. Appropriate isotype controls were used. […] Experimental readouts: activity of therapeutic agents in preclinical models were assessed by the following: • Tumor volume was determined by measurement with calipers throughout the course of the study. Tumor weights in milligrams were determined at end of study • Immunohistochemistry analysis was performed on FFPE NSCLC (H358) xenograft tissue • Changes in immune populations in peripheral blood in CRC (SW480) xenograft humanized model and tumors in syngeneic models (4T1 and LL-2) were assessed by flow cytometry using markers for T cell, myeloid populations

4T1 tumors = 4T1 tumors treated with 01BSUR and docetaxel; assay type: in vivo, Balb/c mice
Protocol: Treatment of 4T1 Tumors with 01BSUR and Docetaxel Leads to Alterations in the Tumor Microenvironment. Female Balb/c mice with 4T1 tumors implanted subcutaneously (s.c.) on the right flank were treated 8 and 15 days post-tumor implant initiating when the tumors reached about 100 mm^3 with the isotype antibody, docetaxel, 01BSUR, or a combination of docetaxel and 01BSUR. […] 5 days after the first dose, tumors were harvested and analyzed for changes to the infiltrating immune cell populations. This was done again at the end point of the study, 4 days after the second dose.
(§1) • I. Tumor models: The role of IL-1β in tumor immunity and efficacy of IL-1β blocking antibodies were tested in the following preclinical models: • Xenograft tumors in humanized mouse models: NSCLC (H358), TNBC (MDA-MB231) and CRC (SW480) • Syngeneic tumor models: TNBC (4T1) and lung (LL-2) cancer • II. […] Combination treatments include chemotherapeutic agent, docetaxel (6.25 mg/Kg QW IV), PD-1 pathway inhibitors (anti-human PD-1, pembrolizumab 10 mg/Kg Q5D IP or anti-mouse PD-1, clone 1D2 10 mg/Kg QW IP) and anti-mouse VEGF blocking antibody (clone 4G3, 5 mg/Kg Q5D) were used in combination with anti-IL-1β antibody. Appropriate isotype controls were used. In all experiments, dosing was initiated after tumor implantation. • III. Experimental readouts: activity of therapeutic agents in preclinical models were assessed by the following: • Tumor volume was determined by measurement with calipers throughout the course of the study. Tumor weights in milligrams were determined at end of study • Immunohistochemistry analysis was performed on FFPE NSCLC (H358) xenograft tissue • Changes in immune populations in peripheral blood in CRC (SW480) xenograft humanized model and tumors in syngeneic models (4T1 and LL-2) were assessed by flow cytometry using markers for T cell, myeloid populations

[1] = system: HR-positive, HER2-negative advanced breast cancer; conditions: added to first-line endocrine therapy with tamoxifen/NSAI plus goserelin, pre- and peri-menopausal women; cited from earlier work
[2] = system: MDA-MB-231Luc2-TdTomato cells; assay: Spontaneous human breast cancer metastasis to human bone implants; assay type: in vivo, NOD SCID mice
Protocol: FIG. 4. Pharmacological blockade of IL-1B inhibits spontaneous metastasis to human bone in vivo. Female NOD-SCID mice bearing two 0.5 cm^3 pieces of human femoral bone received intra-mammary injections of MDA-MB-231Luc2-TdTomato cells. […] All animals were culled 35 days following tumour cell injection. Effects on bone metastases (a) were assessed in vivo and immediately post-mortem by luciferase imaging and confirmed ex vivo on histological sections. Data are shown as numbers of photons per second emitted 2 minutes following sub-cutaneous injection of D-luciferin. Effects on numbers of tumour cells detected in the circulation are shown in (b). *=P<0.01. **=P<0.001. ***=P<0.0001.
(§2) To model human breast cancer metastasis to human bone implants two human bone discs were implanted subcutaneously into 10-week old female NOD SCID mice (n=10/group) under isofluorane anaesthetic. Mice received an injection of 0.003 mg vetergesic and Septrin was added to the drinking water for 1 week following bone implantation. Mice were left for 4 weeks before injecting 1×10^5 MDA-MB-231 Luc2-TdTomato, MCF7 Luc2 or T47D Luc2 cells in 20% Martigel/79% PBS/1% toluene blue into the two hind mammary fat pads. Primary tumor growth and development of metastases was monitored weekly using an IVIS […] system (Caliper Life Sciences) following sub-cutaneous injection of 30 mg/ml D-luciferin (Invitrogen). On termination of experiments mammary tumors, circulating tumor cells, serum and bone metastases were resected. RNA was processed for downstream analysis by real time PCR, and cell lysates were taken for protein analysis and whole tissue for histology as previously described (Nutter et al., 2014; Ottewell et al., 2014a). […] Tumor cells, serum, and bone were subsequently resected for downstream analysis. Bone metastases were investigated following injection of 5×10^5 MDA-MB-231 GFP (control), MDA-MB-231-IV, MDA-MB-231-IL-1B-positive or MDA-MB-231-IL-1R1-positive cells into the lateral tail vein of 6 to 8-week old female BALB/c nude mice (n=12/group). Tumor growth in bones and lungs was monitored weekly by GFP imaging in live animals. Mice were culled 28 days after tumor cell injection at which timepoint hind limbs, lungs and serum were resected and processed for microcomputed tomography imaging (pCT), histology and ELISA analysis of bone turnover markers and circulating cytokines as described (Holen et al., 2016).
Whole blood was centrifuged at 10,000×g for 5 minutes and the serum removed for ELISA assays. The cell pellet was re-suspended in 5 ml of FSM lysis solution (Sigma-Aldrich, Pool, UK) to lyse red blood cells. Remaining cells were re-pelleted, washed 3× in PBS and re-suspended in a solution of PBS/10% FCS. Samples from 10 mice per group were pooled prior to isolation of TdTomato positive tumor cells using a MoFlow High performance cell sorter (Beckman Coulter, Cambridge UK) with the […] laser line from a Coherent I-90C tenable argon ion (Coherent, Santa Clara, Calif.). TdTomato fluorescence was detected by a 555LP dichroic long pass and a 580/30 nm band pass filter. Acquisition and analysis of cells was performed using Summit 4.3 software. After sorting, cells were immediately placed in RNA protect cell reagent (Ambion, Paisley, Renfrew, UK) and stored at −80° C. before RNA extraction. For counting numbers of circulating tumor cells, TdTomato fluorescence was detected using a 561 nm laser and an YL1-A filter (585/16 emission filter). Acquisition and analysis of cells was performed using Attune N×T software.

[3] = system: CD34+ blood vessels in trabecular bone; assay: Bone microvasculature after suppression of IL-1β signalling; assay type: in vivo, BALB/c nude mice and C57BL/6 mice
Protocol: FIG. 7. IL-1β in the bone microenvironment stimulates expansion of the bone metastatic niche. Effects of adding 40 pg/ml or 5 ng/ml recombinant IL-1β to MDA-MB-231 or T47D breast cancer cells is shown in (a) and effects on adding 20 pg/ml, 40 pg/ml or 5 ng/ml IL-1B on proliferation of HS5, bone marrow, or OB1, osteoblasts, are shown in b) and c) respectively. (d) IL-1 driven alterations to the bone vasculature was measured following CD34 staining in the trabecular region of the tibiae from 10-12-week old female IL-1R1 knockout mice. […] Data are shown as mean+/−SEM, *=P<0.01, **=P<0.001, ***=P<0.0001.
FIG. 8. Suppression of IL-1β signalling affects bone integrity and vasculature. […] Data shown are mean+/−SEM, *=P<0.01, **=P<0.001, ***=P<0.0001 compared with control.
as §2

hsCRP = hsCRP change after gevokizumab treatment in type 2 diabetes patients; assay type: in vivo, human; conditions: top dose 0.3 mg/kg (~20 mg) Q4W
From the text: FIG. 12. Clinical data after gevokizumab treatment (panel a) and its extrapolation to higher doses (panels b, c, and d). Adjusted percent change from baseline in hsCRP in patients in a). The hsCRP exposure-response relationship is shown in b) for six different hsCRP base line concentrations.

[4] = Gevokizumab clinical pharmacokinetics; assay type: in vivo, human
SW480 = assay: CRC SW480 xenograft in humanized BLT mice; assay type: in vivo, humanized mouse
Protocol: as §1

## CC(=O)O[C@@]12CO[C@@H]1C[C@H](O)[C@@]1(C)C(=O)[C@H](O)C3=C(C)[C@@H](OC(=O)[C@H](O)[C@@H](NC(=O)OC(C)(C)C)c4ccccc4)C[C@@](O)([C@@H](OC(=O)c4ccccc4)[C@H]21)C3(C)C [docetaxel]
LL2
  efficacy (tumor growth): modest efficacy
4T1 tumors; 5 days after a single dose
  granulocytic MDSC: decrease in granulocytic MDSC
  neutrophils in 4T1 tumors: decrease in neutrophils
4T1 tumors; four days after a second dose, vs control group
  CD4+ and CD8+ T cells expressing TIM-3: no change in the TIM-3 expressing cells
4T1 tumors; treated days 8 and 15 post tumor implant, vs vehicle/isotype control
  tumor growth: delay was enhanced

## CN(C)C(=O)c1cc2cnc(Nc3ccc(N4CCNCC4)cn3)nc2n1C1CCCC1 [ribociclib]
[1]
  progression-free survival (PFS): significantly prolonged progression-free survival

## IL-1Ra: IL-1R antagonist (Anakinra) used to inhibit IL-1β signaling
[2]; IL-1Ra 1 mg/kg daily, canakinumab sc every 14 days, from 7 days after tumor cell injection, control 7 out of 10
  mice with metastasis detected in human bone implants: 4 out of 10
[2]; luciferase imaging, vs control group
  size of bone metastases: smaller than those detected in the control group
[2]; placebo 108 tumor cells/ml
  tumor cells counted in whole blood: 3 tumor cells/ml
[3]; IL-1Ra 1 mg/kg daily (BALB/c nude), canakinumab single dose (C57BL/6), p<0.01
  average length of CD34+ blood vessels in trabecular bone: reduced the average length
[3]; compared with control, p<0.01
  endothelin 1 concentration (ELISA): reduced concentrations
[3]; compared with control, p<0.01 IL-1R antagonist, p<0.001 canakinumab
  VEGF concentration (ELISA): reduced concentrations

## gevokizumab: high-affinity, humanized monoclonal antibody of the IgG2 isotype to interleukin-1β
hsCRP
  reduction of hsCRP: up to 45%
[4]; administered subcutaneously
  Bioavailability: about 56%
[4]; after subcutaneous administration
  pharmacokinetic model: linear two-compartment model with first order absorption
SW480; one of two experiments
  animals with significant reduction in tumor volume: 100 % of animals
SW480; second experiment, compared to isotype control
  animals with slower tumor growth: 80 % of animals
